Values quoted from earlier work, collected in patent US7687082B2, “Complementary compositions to reduce blood glucose levels and treat diabetes” (Astrum Therapeutics Pty. Ltd., priority 2005, dated 2010).
Where two headings read alike, the source gives them in different places. One block for each molecule: values may come before it.

Legend:
T2DM patients [1] = details: 200 μg twice daily, three weeks
humans [2] = details: compared to baseline
[3] = target: T1, adenosine triphosphate (ATP) citrate lyase (Homo sapiens, UniProt P53396)
T1 sequence (P53396 1-1101): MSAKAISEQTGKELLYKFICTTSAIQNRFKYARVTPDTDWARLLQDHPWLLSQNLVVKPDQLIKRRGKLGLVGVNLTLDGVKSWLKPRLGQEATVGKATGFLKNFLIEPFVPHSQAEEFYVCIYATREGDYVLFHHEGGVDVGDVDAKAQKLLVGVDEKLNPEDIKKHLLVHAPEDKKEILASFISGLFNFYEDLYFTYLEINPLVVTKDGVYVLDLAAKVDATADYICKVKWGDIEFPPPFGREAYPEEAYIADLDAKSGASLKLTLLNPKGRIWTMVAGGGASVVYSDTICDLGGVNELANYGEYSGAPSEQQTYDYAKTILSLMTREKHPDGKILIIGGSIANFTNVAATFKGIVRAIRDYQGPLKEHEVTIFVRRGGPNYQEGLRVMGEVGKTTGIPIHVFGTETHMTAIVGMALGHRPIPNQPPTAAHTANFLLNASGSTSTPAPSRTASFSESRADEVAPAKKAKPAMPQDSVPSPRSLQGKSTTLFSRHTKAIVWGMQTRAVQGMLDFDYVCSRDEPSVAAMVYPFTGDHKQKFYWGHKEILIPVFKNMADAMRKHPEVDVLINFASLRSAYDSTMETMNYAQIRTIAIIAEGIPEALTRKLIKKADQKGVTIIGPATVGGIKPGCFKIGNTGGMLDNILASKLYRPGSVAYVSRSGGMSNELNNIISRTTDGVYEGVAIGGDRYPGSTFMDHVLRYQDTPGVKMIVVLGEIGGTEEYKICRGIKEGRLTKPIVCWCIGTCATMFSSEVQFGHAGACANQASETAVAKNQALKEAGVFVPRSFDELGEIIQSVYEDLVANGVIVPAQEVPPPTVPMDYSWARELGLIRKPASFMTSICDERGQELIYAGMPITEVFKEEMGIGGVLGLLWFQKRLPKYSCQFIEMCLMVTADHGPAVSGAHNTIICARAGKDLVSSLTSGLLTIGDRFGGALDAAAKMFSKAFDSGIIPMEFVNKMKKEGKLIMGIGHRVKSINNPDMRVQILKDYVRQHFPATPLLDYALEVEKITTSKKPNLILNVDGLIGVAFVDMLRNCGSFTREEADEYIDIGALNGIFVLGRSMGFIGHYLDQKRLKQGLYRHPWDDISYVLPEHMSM

T2DM patients [4] = details: 12 weeks, compared to placebo control
[5] = tested on: diabetes mellitus patients
T2DM subjects = details: 600 mg twice daily, 4 weeks
humans [6] = details: in vivo
[7] = tested on: timed-pregnant Sprague-Dawley rats; details: rat, in vivo
rats = details: rat, in vivo
[8] = with food

Molecule: [Cr] [chromium]
reduction in triglycerides (T2DM patients [1]; compared to baseline): −10.5% | reduction in glucose (T2DM patients [1]; compared to baseline, p<0.001): −21% | reduction in cholesterol (T2DM patients [1]; compared to baseline, p<0.02): −9.4% | glycated hemoglobin (HbA1C) (T2DM patients [1]; from 8.2% at baseline, p<0.01): 7.6%

inhibition of ATP citrate lyase [3]: potent inhibitor
Molecule: O=C(O)CC(O)(C(=O)O)C(O)C(=O)O (single isomer, unassigned; (-)) [(−)-HCA, (−)-hydroxycitric acid]
decreased body mass index (BMI) (humans [2]; 2.8 g): −5 to −6% | decreased body weight (humans [2]; 2.8 g): −5 to −6% | decreased low density lipoprotein (LDL) (humans [2]; 2.8 g): −13.2% | decreased total cholesterol (TC) (humans [2]; 2.8 g): −7.2% | increased high density lipoprotein (HDL) (humans [2]; 2.8 g): +7.3% | urine level of acetaldehyde (humans [2]; end of study): +83.1% | urine level of acetone (humans [2]; end of study): +35.6% | urine level of formaldehyde (humans [2]; end of study): +106.4% | urine level of malondialdehyde (humans [2]; end of study): +88.4%

Molecule: chromium picolinate [CrPic]
insulin level (T2DM patients [4]): significant decrease | improvement in fasting glucose (T2DM patients [4]; p<0.001): 0.44 mM | improvement in post-prandial serum glucose (T2DM patients [4]; p<0.001): 1.97 mM

Molecule: O=C(O)CCCCC1CCSS1 (stereo not drawn) [α-LA, α-lipoic acid]
decrease of levels of peroxides [5]: 34% | increases in glucose disposal (T2DM subjects; lean T2DM subjects compared to lean controls): 50% | increases in glucose disposal (T2DM subjects; obese T2DM subjects compared to obese controls): 42%

Molecule: CCN(CC)CCO [diethylethanolamine]
individuals developing asthma (humans [6]): 0.6% | reduction of body weight [7]: 9.5% | reduction of weight gain [7]: 48% | findings in respiratory epithelium of the anterior nasal turbinate (rats): inflammatory cell infiltration, focal hyperplasia, and squamous metaplasia

Molecule: konjac mannan
decreased LDL [8]: −23% | decreased TC [8]: −12.7% | generalized loss of weight ([8]; average): 2.75 kg | reduced fasting and postprandial levels of glucose ([8]; on average): −22%
